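Interpolation was linear, between the two tested concentrations surrounding the appropriate level; five concentrations were tested over 48 hours in 96-well plates. GI50: concentration for 50% inhibition of growth. Definition used: TGI = concentration required for complete inhibition of growth.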
Experiments:
Experiment in all cases: NCI tumour cell line growth inhibition, 48 h
786-0 renal = tested on: 786-0 renal
A498 renal = tested on: A498 renal
A549 NSCLC = tested on: A549 NSCLC
ACHN renal = tested on: ACHN renal
BT-549 breast = tested on: BT-549 breast
CAKI-1 renal = tested on: CAKI-1 renal
CCRF-CEM leukemia = tested on: CCRF-CEM leukemia
COLO 205 colon = tested on: COLO 205 colon
DU-145 prostate = tested on: DU-145 prostate
EKVX NSCLC = tested on: EKVX NSCLC
HCC-2998 colon = tested on: HCC-2998 colon
HCT-116 colon = tested on: HCT-116 colon
HCT-15 colon = tested on: HCT-15 colon
HL-60(TB) leukemia = tested on: HL-60(TB) leukemia
HOP-62 NSCLC = tested on: HOP-62 NSCLC
HOP-92 NSCLC = tested on: HOP-92 NSCLC
HS 578T breast = tested on: HS 578T breast
HT29 colon = tested on: HT29 colon
IGROV1 ovarian = tested on: IGROV1 ovarian
KM12 colon = tested on: KM12 colon
LOX IMVI melanoma = tested on: LOX IMVI melanoma
M14 melanoma = tested on: M14 melanoma
MALME-3M melanoma = tested on: MALME-3M melanoma
MCF7 breast = tested on: MCF7 breast
MDA-MB-231 breast = tested on: MDA-MB-231 breast
MDA-MB-435 = tested on: MDA-MB-435
MOLT-4 leukemia = tested on: MOLT-4 leukemia
NCI-H226 lung = tested on: NCI-H226 lung
NCI-H23 lung = tested on: NCI-H23 lung
NCI-H460 lung = tested on: NCI-H460 lung
NCI/ADR-RES ovarian = tested on: NCI/ADR-RES ovarian
OVCAR-3 ovarian = tested on: OVCAR-3 ovarian
OVCAR-4 ovarian = tested on: OVCAR-4 ovarian
OVCAR-5 ovarian = tested on: OVCAR-5 ovarian
OVCAR-8 ovarian = tested on: OVCAR-8 ovarian
PC-3 prostate = tested on: PC-3 prostate
RPMI-8226 leukemia = tested on: RPMI-8226 leukemia
RXF 393 renal = tested on: RXF 393 renal
SF-268 CNS = tested on: SF-268 CNS
SF-295 CNS = tested on: SF-295 CNS
SF-539 CNS = tested on: SF-539 CNS
SK-MEL-28 melanoma = tested on: SK-MEL-28 melanoma
SK-MEL-5 melanoma = tested on: SK-MEL-5 melanoma
SK-OV-3 ovarian = tested on: SK-OV-3 ovarian
SN12C renal = tested on: SN12C renal
SNB-19 CNS = tested on: SNB-19 CNS
SNB-75 CNS = tested on: SNB-75 CNS
SR leukemia = tested on: SR leukemia
SW-620 colon = tested on: SW-620 colon
T-47D breast = tested on: T-47D breast
TK-10 renal = tested on: TK-10 renal
U251 CNS = tested on: U251 CNS
UACC-257 melanoma = tested on: UACC-257 melanoma
UACC-62 melanoma = tested on: UACC-62 melanoma
UO-31 renal = tested on: UO-31 renal

With COc1ccc(C(=O)N2N=C(c3ccc(Br)cc3)CC2c2cn(-c3ccccc3)nc2-c2ccccc2)cc1 (stereo not given) the GI50 (786-0 renal) was 19 µM, the TGI (786-0 renal) was > 50 µM and the GI50 (A498 renal) was 6.82 µM. The TGI (A498 renal) was 28.5 µM, the GI50 (A549 NSCLC) was 4.28 µM and the TGI (A549 NSCLC) was > 50 µM. The GI50 (ACHN renal) was 18.9 µM, the TGI (ACHN renal) was > 50 µM and the GI50 (BT-549 breast) was 30.6 µM. For the same compound, the TGI (BT-549 breast) was > 50 µM, the GI50 (CAKI-1 renal) was 41.7 µM and the TGI (CAKI-1 renal) was > 50 µM. The GI50 (CCRF-CEM leukemia) was 9.86 µM, the TGI (CCRF-CEM leukemia) was 29.7 µM and the GI50 (COLO 205 colon) was > 50 µM. For the same compound, the TGI (COLO 205 colon) was > 50 µM, the GI50 (DU-145 prostate) was 25 µM and the TGI (DU-145 prostate) was > 50 µM. For the same compound, the GI50 (EKVX NSCLC) was > 50 µM, the TGI (EKVX NSCLC) was > 50 µM and the GI50 (HCC-2998 colon) was > 50 µM. The TGI (HCC-2998 colon) was > 50 µM, the GI50 (HCT-116 colon) was 2.87 µM and the TGI (HCT-116 colon) was > 50 µM. The GI50 (HCT-15 colon) was > 50 µM, the TGI (HCT-15 colon) was > 50 µM and the GI50 (HL-60(TB) leukemia) was 30.5 µM. The TGI (HL-60(TB) leukemia) was > 50 µM, the GI50 (HOP-62 NSCLC) was 9.05 µM and the TGI (HOP-62 NSCLC) was 44.5 µM. For the same compound, the GI50 (HOP-92 NSCLC) was 1.79 µM, the TGI (HOP-92 NSCLC) was 15.8 µM and the GI50 (HS 578T breast) was 20.5 µM. For the same compound, the TGI (HS 578T breast) was > 50 µM, the GI50 (HT29 colon) was > 50 µM and the TGI (HT29 colon) was > 50 µM. For the same compound, the GI50 (IGROV1 ovarian) was 19.4 µM, the TGI (IGROV1 ovarian) was > 50 µM and the GI50 (KM12 colon) was > 50 µM. The TGI (KM12 colon) was > 50 µM, the GI50 (LOX IMVI melanoma) was 42.1 µM and the TGI (LOX IMVI melanoma) was > 50 µM. For the same compound, the GI50 (M14 melanoma) was 15.7 µM, the TGI (M14 melanoma) was > 50 µM and the GI50 (MALME-3M melanoma) was > 50 µM. The TGI (MALME-3M melanoma) was > 50 µM, the GI50 (MCF7 breast) was > 50 µM and the TGI (MCF7 breast) was > 50 µM. The GI50 (MDA-MB-231 breast) was 5.47 µM, the TGI (MDA-MB-231 breast) was > 50 µM and the GI50 (MDA-MB-435) was > 50 µM. For the same compound, the TGI (MDA-MB-435) was > 50 µM, the GI50 (MOLT-4 leukemia) was 11.4 µM and the TGI (MOLT-4 leukemia) was 25.3 µM. For the same compound, the GI50 (NCI-H226 lung) was 18.3 µM, the TGI (NCI-H226 lung) was > 50 µM and the GI50 (NCI-H23 lung) was 20.8 µM. The TGI (NCI-H23 lung) was > 50 µM, the GI50 (NCI-H460 lung) was 15.3 µM and the TGI (NCI-H460 lung) was > 50 µM. The GI50 (NCI/ADR-RES ovarian) was 33 µM, the TGI (NCI/ADR-RES ovarian) was > 50 µM and the GI50 (OVCAR-3 ovarian) was 23.9 µM. The TGI (OVCAR-3 ovarian) was > 50 µM, the GI50 (OVCAR-4 ovarian) was 15.2 µM and the TGI (OVCAR-4 ovarian) was > 50 µM. For the same compound, the GI50 (OVCAR-5 ovarian) was > 50 µM, the TGI (OVCAR-5 ovarian) was > 50 µM and the GI50 (OVCAR-8 ovarian) was 8.55 µM. For the same compound, the TGI (OVCAR-8 ovarian) was > 50 µM, the GI50 (PC-3 prostate) was > 50 µM and the TGI (PC-3 prostate) was > 50 µM. The GI50 (RPMI-8226 leukemia) was > 50 µM, the TGI (RPMI-8226 leukemia) was > 50 µM and the GI50 (RXF 393 renal) was 6.28 µM. For the same compound, the TGI (RXF 393 renal) was > 50 µM, the GI50 (SF-268 CNS) was 34.8 µM and the TGI (SF-268 CNS) was > 50 µM. For the same compound, the GI50 (SF-295 CNS) was 17 µM, the TGI (SF-295 CNS) was > 50 µM and the GI50 (SF-539 CNS) was 39.5 µM. For the same compound, the TGI (SF-539 CNS) was > 50 µM, the GI50 (SK-MEL-28 melanoma) was > 50 µM and the TGI (SK-MEL-28 melanoma) was > 50 µM. For the same compound, the GI50 (SK-MEL-5 melanoma) was 15 µM, the TGI (SK-MEL-5 melanoma) was > 50 µM and the GI50 (SK-OV-3 ovarian) was 12.1 µM. The TGI (SK-OV-3 ovarian) was 36.3 µM, the GI50 (SN12C renal) was 47.4 µM and the TGI (SN12C renal) was > 50 µM. For the same compound, the GI50 (SNB-19 CNS) was 20.4 µM, the TGI (SNB-19 CNS) was > 50 µM and the GI50 (SNB-75 CNS) was 30.3 µM. The TGI (SNB-75 CNS) was > 50 µM, the GI50 (SR leukemia) was 7.78 µM and the TGI (SR leukemia) was 16.2 µM. The GI50 (SW-620 colon) was > 50 µM, the TGI (SW-620 colon) was > 50 µM and the GI50 (T-47D breast) was 13.4 µM. For the same compound, the TGI (T-47D breast) was > 50 µM, the GI50 (TK-10 renal) was 20.6 µM and the TGI (TK-10 renal) was > 50 µM. The GI50 (U251 CNS) was 13 µM, the TGI (U251 CNS) was > 50 µM and the GI50 (UACC-257 melanoma) was > 50 µM. The TGI (UACC-257 melanoma) was > 50 µM, the GI50 (UACC-62 melanoma) was 42.8 µM and the TGI (UACC-62 melanoma) was > 50 µM. The GI50 (UO-31 renal) was 42.6 µM and the TGI (UO-31 renal) was > 50 µM.
